Values quoted from earlier work in paper PMC2360332 (British Journal of Cancer, 2007).

How the values were obtained:
[1] = tested on: MNU-induced breast cancers in rats; settings: ref Parikh et al, 2005; cited from earlier work
Excerpt: (§1) A peptide (α-fetoprotein-derived peptide (AFPep), sequence cyclo(EKTOVNOGN), where O is hydroxyproline) derived from the active site of α-fetoprotein (AFP) has been under investigation as a potential agent for prevention or therapy of oestrogen receptor-positive (ER+) breast cancer ([Mesfin et al, 2000], [2001]; [Bennett et al, 2002], [2006]; [DeFreest et al, 2004]).

[2] = tested on: breast cancer that had become resistant to the cytostatic effects of tamoxifen; settings: ref Bennett et al, 2002; cited from earlier work
Excerpt: as §1

[3] = tested on: ER; settings: ref Parikh et al, 2005; Bennett et al, 2006; cited from earlier work
Excerpt: (§2) In fact, in this study and ...

[4] = tested on: immature mouse uterus; settings: earlier study; ref Bennett et al, 2002; cited from earlier work
Excerpt: as §2

[5] = tested on: human breast cancer xenografts; settings: cited from earlier work
Excerpt: A peptide (α-fetoprotein-derived peptide (AFPep), sequence cyclo(EKTOVNOGN), where O is hydroxyproline) derived from the active site of α-fetoprotein (AFP) has been under investigation as a potential agent for prevention or therapy of oestrogen receptor-positive (ER+) breast cancer ([Mesfin et al, 2000], [2001]; [Bennett et al, 2002], [2006]; [DeFreest et al, 2004]). […] In fact, in this study and ...

[6] = tested on: breast cancer growth; design: method as in Lippman and Bolan, 1975; settings: ref Lippman and Bolan, 1975; cited from earlier work
[7] = tested on: breast cancer; settings: cited from earlier work

Compound | Development of carcinogen-induced mammary cancers in rats (in words) [1] | Growth of tamoxifen-resistant breast cancer (in words) [2] | ER antagonist / partial agonist (in words) [3] | Tam-induced uterine hyperplasia (in words) [4] | Oral activity (in words) ([5]; oral route, ref Bennett et al, 2006) | Growth of human breast cancer xenografts in mice (in words) ([5]; ref Mesfin et al, 2001) | Breast cancer growth (in words) [6] | Risk of primary breast cancers (in words) ([7]; high-risk patients, ref Fisher et al, 1998) | Breast cancer recurrences (in words) ([7]; ref Early Breast Cancer Trialists' Collaborative Group, 1992)
cyclo(EKTOVNOGN) (head to tail) [AFPep] | prevent the development of carcinogen-induced mammary cancers in rats | inhibit the growth of breast cancer that had become resistant to the cytostatic effects of tamoxifen | not an ER antagonist, nor an ER partial agonist | interferes with the uterine hyperplasia induced by Tam | active by the oral route | inhibit the growth of human breast cancer xenografts in mice |  |  | 
CC/C(=C(\c1ccccc1)c1ccc(OCCN(C)C)cc1)c1ccccc1 [Tam, Tamoxifen, reference compound] |  |  |  |  |  |  | inhibit breast cancer growth | decrease the risk of primary breast cancers in high-risk patients | inhibit breast cancer recurrences
